From patent US20260232767A1, “INTERLEUKIN-23 RECEPTOR ANTAGONIST PEPTIDES FOR USE IN THE TREATMENT OF PSORIASIS” (Janssen Pharmaceutica NV, priority 2023, published 2026)

Test system: subjects with moderate-to-severe plaque psoriasis
Assay: PSSD symptom and sign scores, Example 2
Format: in vivo, human
Conditions: for Change from Baseline in PSSD Sign Score, LSMean / Change from Baseline in PSSD Symptom Score, LSMean: MMRM

Compound: CC(=O)NCCCC[C@@H]1NC(=O)[C@H](Cc2c[nH]c3c(C)cccc23)NC(=O)[C@H]([C@@H](C)O)NC(=O)[C@H](CC(N)=O)NC(=O)[C@@H](NC(C)=O)C(C)(C)SSC(C)(C)[C@@H](C(=O)N[C@@H](Cc2ccc(OCCN)cc2)C(=O)N[C@@H](Cc2ccc3ccccc3c2)C(=O)NC2(C(=O)N[C@@H](CCC(=O)O)C(=O)N[C@@H](CC(N)=O)C(=O)N[C@@H](Cc3cccnc3)C(=O)N(C)CC(N)=O)CCOCC2)NC1=O [IL-23 receptor antagonist peptide, Ac-[Pen]*-N-T-[W(7-Me)]-[Lys(Ac)]-[Pen]*-Phe[4-(2-aminoethoxy)]-[2-Nal]-[THP]-E-N-[3-Pal]-Sarc-NH2 (*[Pen]-[Pen]* formdisulfidebond)]
- Subjects Achieving PSSD Sign Score 0 (%) (Week 16, 25 mg QD, Baseline Sign Score ≥1, N=43): (2.3%)
- Subjects Achieving PSSD Symptom Score 0 (%) (Week 16, 25 mg QD, Baseline Symptom Score ≥1, N=43): (16.3%)
- Change from Baseline in PSSD Sign Score, LSMean (Week 16, 25 mg QD): −31.7
- Change from Baseline in PSSD Symptom Score, LSMean (Week 16, 25 mg QD): −28.0
- Change from Baseline in PSSD Sign Score, Mean (Week 16, 50 mg QD): −42.7
- Change from Baseline in PSSD Sign Score, Median (Week 16, 50 mg QD): −43.0
- Change from Baseline in PSSD Symptom Score, Mean (Week 16, 50 mg QD): −36.7
- Change from Baseline in PSSD Symptom Score, Median (Week 16, 50 mg QD): −36.0
- Subjects Achieving PSSD Sign Score 0 (%) (Week 16, 50 mg QD, Baseline Sign Score ≥1, N=43): (14.0%)
- Subjects Achieving PSSD Symptom Score 0 (%) (Week 16, 50 mg QD, Baseline Symptom Score ≥1, N=42): (23.8%)
- Change from Baseline in PSSD Sign Score, LSMean (Week 16, 50 mg QD): −42.9
- Change from Baseline in PSSD Symptom Score, LSMean (Week 16, 50 mg QD): −35.4
- Change from Baseline in PSSD Sign Score, Mean (Week 16, 100 mg BID): −51.1
- Change from Baseline in PSSD Sign Score, Median (Week 16, 100 mg BID): −55.0
- Change from Baseline in PSSD Symptom Score, Mean (Week 16, 100 mg BID): −44.0
- Change from Baseline in PSSD Symptom Score, Median (Week 16, 100 mg BID): −42.0
- Subjects Achieving PSSD Sign Score 0 (%) (Week 16, 100 mg BID, Baseline Sign Score ≥1, N=42): (14.3%)
- Subjects Achieving PSSD Symptom Score 0 (%) (Week 16, 100 mg BID, Baseline Symptom Score ≥1, N=42): (26.2%)
- Change from Baseline in PSSD Sign Score, LSMean (Week 16, 100 mg BID): −50.6
- Change from Baseline in PSSD Symptom Score, LSMean (Week 16, 100 mg BID): −40.2
- Change from Baseline in PSSD Sign Score, Median (Week 16, 100 mg QD): −45.0
- Change from Baseline in PSSD Symptom Score, Mean (Week 16, 100 mg QD): −29.4
- Change from Baseline in PSSD Symptom Score, Median (Week 16, 100 mg QD): −31.0
- Subjects Achieving PSSD Sign Score 0 (%) (Week 16, 100 mg QD, Baseline Sign Score ≥1, N=43): (16.3%)
- Subjects Achieving PSSD Symptom Score 0 (%) (Week 16, 100 mg QD, Baseline Symptom Score ≥1, N=43): (27.9%)
- Change from Baseline in PSSD Sign Score, LSMean (Week 16, 100 mg QD): −45.3
- Change from Baseline in PSSD Symptom Score, LSMean (Week 16, 100 mg QD): −36.8
- Change from Baseline in PSSD Sign Score, Mean (Week 24, 25 mg BID): −39.8
- Change from Baseline in PSSD Sign Score, Median (Week 24, 25 mg BID): −41.0
- Change from Baseline in PSSD Symptom Score, Mean (Week 24, 25 mg BID): −33.3
- Change from Baseline in PSSD Symptom Score, Median (Week 24, 25 mg BID): −29.0
- Subjects Achieving PSSD Sign Score 0 (%) (Week 24, 25 mg BID, Baseline Sign Score ≥1, N=41): (4.9%)
- Subjects Achieving PSSD Symptom Score 0 (%) (Week 24, 25 mg BID, Baseline Symptom Score ≥1, N=41): (7.3%)
- Change from Baseline in PSSD Sign Score, LSMean (Week 24, 25 mg BID): −37.7
- Change from Baseline in PSSD Symptom Score, LSMean (Week 24, 25 mg BID): −32.1
- Change from Baseline in PSSD Sign Score, Mean (Week 24, 25 mg QD): −38.6
- Change from Baseline in PSSD Sign Score, Median (Week 24, 25 mg QD): −44.5
- Change from Baseline in PSSD Symptom Score, Mean (Week 24, 25 mg QD): −32.9
- Change from Baseline in PSSD Symptom Score, Median (Week 24, 25 mg QD): −33.0
- Subjects Achieving PSSD Sign Score 0 (%) (Week 24, 25 mg QD, Baseline Sign Score ≥1, N=43): (14.0%)
- Subjects Achieving PSSD Symptom Score 0 (%) (Week 24, 25 mg QD, Baseline Symptom Score ≥1, N=43): (20.9%)
- Change from Baseline in PSSD Sign Score, LSMean (Week 24, 25 mg QD): −31.6
- Change from Baseline in PSSD Symptom Score, LSMean (Week 24, 25 mg QD): −25.3
- Change from Baseline in PSSD Sign Score, Mean (Week 24, 50 mg QD): −45.7
- Change from Baseline in PSSD Sign Score, Median (Week 24, 50 mg QD): −47.5
- Change from Baseline in PSSD Symptom Score, Mean (Week 24, 50 mg QD): −38.8
- Change from Baseline in PSSD Symptom Score, Median (Week 24, 50 mg QD): −40.0
- Subjects Achieving PSSD Sign Score 0 (%) (Week 24, 50 mg QD, Baseline Sign Score ≥1, N=43): (9.3%)
- Subjects Achieving PSSD Symptom Score 0 (%) (Week 24, 50 mg QD, Baseline Symptom Score ≥1, N=42): (14.3%)
- Change from Baseline in PSSD Sign Score, LSMean (Week 24, 50 mg QD): −45.3
- Change from Baseline in PSSD Symptom Score, LSMean (Week 24, 50 mg QD): −36.3
- Change from Baseline in PSSD Sign Score, Mean (Week 24, 100 mg BID): −51.6
- Change from Baseline in PSSD Sign Score, Median (Week 24, 100 mg BID): −53.0
- Change from Baseline in PSSD Symptom Score, Mean (Week 24, 100 mg BID): −44.8
- Change from Baseline in PSSD Symptom Score, Median (Week 24, 100 mg BID): −44.0
- Subjects Achieving PSSD Sign Score 0 (%) (Week 24, 100 mg BID, Baseline Sign Score ≥1, N=42): (19.0%)
- Subjects Achieving PSSD Symptom Score 0 (%) (Week 24, 100 mg BID, Baseline Symptom Score ≥1, N=42): (21.4%)
- Change from Baseline in PSSD Sign Score, LSMean (Week 24, 100 mg BID): −50.0
- Change from Baseline in PSSD Symptom Score, LSMean (Week 24, 100 mg BID): −40.3
- Change from Baseline in PSSD Sign Score, Mean (Week 24, 100 mg QD): −41.9
- Change from Baseline in PSSD Sign Score, Median (Week 24, 100 mg QD): −44.0
- Change from Baseline in PSSD Symptom Score, Mean (Week 24, 100 mg QD): −28.4
- Change from Baseline in PSSD Symptom Score, Median (Week 24, 100 mg QD): −26.0
- Subjects Achieving PSSD Sign Score 0 (%) (Week 24, 100 mg QD, Baseline Sign Score ≥1, N=43): (11.6%)
- Subjects Achieving PSSD Symptom Score 0 (%) (Week 24, 100 mg QD, Baseline Symptom Score ≥1, N=43): (25.6%)
- Change from Baseline in PSSD Sign Score, LSMean (Week 24, 100 mg QD): −46.3
- Change from Baseline in PSSD Symptom Score, LSMean (Week 24, 100 mg QD): −36.4
- Change from Baseline in PSSD Sign Score, Mean (Week 24, Placebo → 100 mg QD): −40.2
- Change from Baseline in PSSD Sign Score, Median (Week 24, Placebo → 100 mg QD): −40.0
- Change from Baseline in PSSD Symptom Score, Mean (Week 24, Placebo → 100 mg QD): −26.6
- Change from Baseline in PSSD Symptom Score, Median (Week 24, Placebo → 100 mg QD): −26.0
- Subjects Achieving PSSD Sign Score 0 (%) (Week 24, Placebo → 100 mg QD, Baseline Sign Score ≥1, crossed-over subjects only): (8.6%)
- Subjects Achieving PSSD Symptom Score 0 (%) (Week 24, Placebo → 100 mg QD, Baseline Symptom Score ≥1, crossed-over subjects only): (11.4%)
- Change from Baseline in PSSD Sign Score, LSMean (Week 24, Placebo → 100 mg QD): −40.3
- Change from Baseline in PSSD Symptom Score, LSMean (Week 24, Placebo → 100 mg QD): −29.2
- Change from Baseline in PSSD Sign Score, Mean (Week 32, 25 mg BID): −38.3
- Change from Baseline in PSSD Sign Score, Median (Week 32, 25 mg BID): −38.0
- Change from Baseline in PSSD Symptom Score, Mean (Week 32, 25 mg BID): −31.0
- Change from Baseline in PSSD Symptom Score, Median (Week 32, 25 mg BID): −28.0
- Subjects Achieving PSSD Sign Score 0 (%) (Week 32, 25 mg BID, Baseline Sign Score ≥1, N=41): (4.9%)
- Subjects Achieving PSSD Symptom Score 0 (%) (Week 32, 25 mg BID, Baseline Symptom Score ≥1, N=41): (7.3%)
- Change from Baseline in PSSD Sign Score, LSMean (Week 32, 25 mg BID): −38.9
- Change from Baseline in PSSD Symptom Score, LSMean (Week 32, 25 mg BID): −31.4
- Change from Baseline in PSSD Sign Score, Mean (Week 32, 25 mg QD): −37.2
- Change from Baseline in PSSD Sign Score, Median (Week 32, 25 mg QD): −39.0
- Change from Baseline in PSSD Symptom Score, Mean (Week 32, 25 mg QD): −32.5
- Change from Baseline in PSSD Symptom Score, Median (Week 32, 25 mg QD): −32.0
- Subjects Achieving PSSD Sign Score 0 (%) (Week 32, 25 mg QD, Baseline Sign Score ≥1, N=43): (9.3%)
- Subjects Achieving PSSD Symptom Score 0 (%) (Week 32, 25 mg QD, Baseline Symptom Score ≥1, N=43): (20.9%)
- Change from Baseline in PSSD Sign Score, LSMean (Week 32, 25 mg QD): −31.3
- Change from Baseline in PSSD Symptom Score, LSMean (Week 32, 25 mg QD): −26.2
- Change from Baseline in PSSD Sign Score, Mean (Week 32, 50 mg QD): −39.7
- Change from Baseline in PSSD Sign Score, Median (Week 32, 50 mg QD): −45.0
- Change from Baseline in PSSD Symptom Score, Mean (Week 32, 50 mg QD): −35.9
- Change from Baseline in PSSD Symptom Score, Median (Week 32, 50 mg QD): −32.0
- Subjects Achieving PSSD Sign Score 0 (%) (Week 32, 50 mg QD, Baseline Sign Score ≥1, N=43): (9.3%)
- Subjects Achieving PSSD Symptom Score 0 (%) (Week 32, 50 mg QD, Baseline Symptom Score ≥1, N=42): (14.3%)
- Change from Baseline in PSSD Sign Score, LSMean (Week 32, 50 mg QD): −39.0
- Change from Baseline in PSSD Symptom Score, LSMean (Week 32, 50 mg QD): −32.9
- Change from Baseline in PSSD Sign Score, Mean (Week 32, 100 mg BID): −52.3
- Change from Baseline in PSSD Sign Score, Median (Week 32, 100 mg BID): −54.0
- Change from Baseline in PSSD Symptom Score, Mean (Week 32, 100 mg BID): −45.5
- Change from Baseline in PSSD Symptom Score, Median (Week 32, 100 mg BID): −47.0
- Subjects Achieving PSSD Sign Score 0 (%) (Week 32, 100 mg BID, Baseline Sign Score ≥1, N=42): (21.4%)
- Subjects Achieving PSSD Symptom Score 0 (%) (Week 32, 100 mg BID, Baseline Symptom Score ≥1, N=42): (23.8%)
- Change from Baseline in PSSD Sign Score, LSMean (Week 32, 100 mg BID): −51.0
- Change from Baseline in PSSD Symptom Score, LSMean (Week 32, 100 mg BID): −40.9
- Change from Baseline in PSSD Sign Score, Mean (Week 32, 100 mg QD): −42.3
- Change from Baseline in PSSD Sign Score, Median (Week 32, 100 mg QD): −43.0
